Assay type in all cases: cell-based, human
One assay has as its system Target C. In words: HiBiT protein abundance assay, Target C (Promega Nano-Glo HiBiT Lytic Detection System, knock-in K562 cell line). The following applies: Homo sapiens, K562, 24 h, HiBiT K562 cell line, 24 hours, top dose 10 μM; read-out: Effect on protein abundance, Target C (IC50 category). The gist of the method: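 Knock-in K562 cells carrying HiBiT-tagged Target C, 10,000 per well, treated 24 h at 37 °C with 10-point threefold dilutions (top 10 μM final, ≤0.25% DMSO). Lytic HiBiT luminescence read; response normalised to unmodified K562 and DMSO controls, four-parameter fit interpolated at 50% for IC50.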
(In general: With HiBiT, luminescence reflects the tagged protein that the partner subunit can reach.)

A further assay concerns MYB. Kind of assay: HiBiT protein abundance assay, MYB HiBiT K562 cell line. The following applies: HiBiT K562 cell line, 24 hours, top dose 10 μM; read-out: Effect on protein abundance, MYB (IC50 category). The method, boiled down: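 K562 knock-in lines with endogenous HiBiT-tagged target, 10,000 cells/well in IMDM + FBS, treated 24 h at 37° C with 10-point 3-fold dilutions (top 10 μM final; DMSO ≤0.25%). Lytic Nano-Glo HiBiT luminescence normalized to untagged K562 baseline and DMSO controls; IC50 = concentration giving 50% abundance via four-parameter fit.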

A further assay concerns HTT mRNA. In words: RT-qPCR splicing assay, HTT canonical junction (CJ) and alternative junction (AJ) mRNA. The following applies: Homo sapiens; for AC50: increase in HTT alternative junction (AJ) mRNA, read-out: HTT AJ AC50. The gist of the method: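 24 h treatment, 37 °C/5% CO2; A673 or K562; 11-pt 3-fold series, top 10 uM final; DMSO ≤0.25%. Cell lysis with DNase I, then 1-step RT-qPCR. Housekeeping normalization: PPIA (A673), GAPDH or GUSB (K562).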

Where [1] appears, read: decrease in HTT canonical junction (CJ) mRNA, RT-qPCR, read-out: HTT CJ IC50.
Where [2] appears, read: Table 5 panel, canonical junction qPCR, compound concentration having 50% response in CJ decrease, read-out: HTT IC50 (decrease in CJ mRNA levels).

Like-named read-outs stand apart in the source and are kept apart here.

The values that follow come from patent US20250332173A1, “COMPOUNDS AND METHODS FOR MODULATING NUCLEIC ACID SPLICING” (REMIX THERAPEUTICS INC., priority 2021, published 2025).

`CCN1CCC(n2ccc3cc(-c4cc(C)c5nn(C)cc5c4)ncc3c2=O)CC1` [Compound 1207, 6-(2,7-dimethyl-2H-indazol-5-yl)-2-(1-ethylpiperidin-4-yl)-2,7-naphthyridin-1(2H)-one]: the half-maximal inhibitory concentration (IC50) with Target C, with MYB, in the assay with HTT mRNA (setting [1]) and with HTT mRNA (setting [2]) was 1000 to 10000 nM in each case. The AC50 (commonly the midpoint of the concentration-response curve, whichever way the signal moves) in the assay on HTT mRNA (RT-qPCR) was 1000 to 10000 nM.
As for `Cc1cc(-c2cc3ccn(C4CCN(C5CC5)CC4)c(=O)c3cn2)cc2cn(C)nc12` [Compound 1208, 2-(1-cyclopropylpiperidin-4-yl)-6-(2,7-dimethyl-2H-indazol-5-yl)-2,7-naphthyridin-1(2H)-one], the IC50 (commonly the concentration needed to halve the response being measured) with Target C was above 10000 nM; in the assay on MYB, 1000 to 10000 nM; in the assay with HTT mRNA (setting [1]) it was above 10000 nM; in the assay with HTT mRNA (setting [2]), above 10000 nM. Also, the AC50 with HTT mRNA (RT-qPCR) was above 10000 nM.
`Cc1cc(-c2cc3ccn(C4CCN(C5COC5)CC4)c(=O)c3cn2)cc2cn(C)nc12` [Compound 1209, 6-(2,7-dimethyl-2H-indazol-5-yl)-2-(1-(oxetan-3-yl)piperidin-4-yl)-2,7-naphthyridin-1(2H)-one-1]: the IC50 with Target C, in the assay with MYB, with HTT mRNA (setting [1]) and in the assay with HTT mRNA (setting [2]) was 100 to 1000 nM each time. Besides, the AC50 with HTT mRNA (RT-qPCR) was 100 to 1000 nM.
For the compound `Cc1cc(-c2cc3ccn(C4CCN(CCO)CC4)c(=O)c3cn2)cc2cn(C)nc12` [Compound 1210, 6-(2.7-dimethyl-2H-indazol-5-yl)-2-(1-(2-hydroxyethyl)piperidin-4-yl)-2,7-naphthyridin-1(2H)-one], the IC50 in the assay on Target C is above 10000 nM; with MYB, 1000 to 10000 nM; in the assay with HTT mRNA (setting [1]) it was above 10000 nM; in the assay with HTT mRNA (setting [2]), above 10000 nM. Moreover, the AC50 in the assay on HTT mRNA (RT-qPCR) is above 10000 nM.
Take `Cn1cc2cc(-c3ncc4c(=O)n(C5CCNCC5)ccc4n3)c(O)cc2n1` [Compound 1211]: the IC50 was 100 to 1000 nM in the assay on Target C, below 100 nM in the assay on MYB, 100 to 1000 nM in the assay with HTT mRNA (setting [1]) and 100 to 1000 nM in the assay with HTT mRNA (setting [2]). Also, in the assay on HTT mRNA (RT-qPCR), the AC50 was in the range of 100 to 1000 nM.
Regarding `Cn1cc2cc(-c3ncc4c(=O)n(C5CCNCC5)ccc4n3)cc(F)c2n1` [Compound 1212, 2-(7-fluoro-2-methyl-2H-indazol-5-yl)-6-(piperidin-4-yl)pyrido[4,3-d]pyrimidin-5(6H)-one], the IC50 in the assay with Target C is 100 to 1000 nM; with MYB it was below 100 nM; with HTT mRNA (setting [1]), 100 to 1000 nM; in the assay on HTT mRNA (setting [2]), 100 to 1000 nM. Also, the AC50 in the assay with HTT mRNA (RT-qPCR) was in the range of 100 to 1000 nM.
As to `Cc1cn2cc(-c3cc4ccn(C5CCNC5)c(=O)c4cn3)cc(C#N)c2n1` (stereo not shown) [Compound 1214], the IC50 is above 10000 nM with Target C, 1000 to 10000 nM in the assay with MYB, above 10000 nM with HTT mRNA (setting [1]) and above 10000 nM with HTT mRNA (setting [2]). Moreover, in the assay on HTT mRNA (RT-qPCR), the AC50 was above 10000 nM.
For `Cc1cn2cc(-c3ncc4c(=O)n(C5CCNC5)ccc4n3)cc(F)c2n1` (stereo not shown) [Compound 1215], the IC50 in the assay on Target C is 1000 to 10000 nM; in the assay with MYB, 100 to 1000 nM; in the assay on HTT mRNA (setting [1]) it was above 10000 nM; in the assay on HTT mRNA (setting [2]), above 10000 nM. For the same compound, the half-maximal activity concentration (AC50) in the assay on HTT mRNA (RT-qPCR) is above 10000 nM.
As to `COc1c(-c2cc3ccn(C4CCNCC4)c(=O)c3cn2)cc2cn(C)nc2c1F` [Compound 1219], the half-inhibitory concentration (IC50) was 1000 to 10000 nM in the assay with Target C, 100 to 1000 nM in the assay with MYB, 1000 to 10000 nM in the assay with HTT mRNA (setting [1]) and 1000 to 10000 nM with HTT mRNA (setting [2]). In addition, the AC50 in the assay on HTT mRNA (RT-qPCR) was 1000 to 10000 nM.
Turning to `Cc1cn2cc(-c3ncc4c(=O)n(C5CCNC5)ccc4n3)cc(C#N)c2n1` (stereo not shown) [Compound 1221], the IC50 in the assay on Target C, in the assay on MYB, in the assay on HTT mRNA (setting [1]) and in the assay on HTT mRNA (setting [2]) was 100 to 1000 nM each time. Also, the concentration at half-maximal activity (AC50) in the assay with HTT mRNA (RT-qPCR) is 100 to 1000 nM.
As to `Cc1c(O)c(-c2ncc3c(=O)n(C4CCNC4)ccc3n2)cc2cn(C)nc12` (stereo not shown) [Compound 1222], the half-maximal inhibitory concentration (IC50) with Target C was above 10000 nM; in the assay on MYB, below 100 nM; with HTT mRNA (setting [1]), above 10000 nM; in the assay on HTT mRNA (setting [2]), 1000 to 10000 nM. Besides, the half-maximal activity concentration (AC50) in the assay on HTT mRNA (RT-qPCR) is 1000 to 10000 nM.
